Test [1] concerns patients with diabetic nephropathy. In words: Double-blind, randomised, placebo-controlled study of 24-hour proteinuria on top of high-dose ARB.
Method: The study was double-blind, randomised, and placebo-controlled. […] Patients were included if at the end of the 4-week treatment period with high-dose ARBs, their 24-hour proteinuria was >300 mg/24 h. They were randomised into 3 groups: 20 mg of compound A, 50 mg of compound A, or placebo once daily, on top of the high dose ARB. Treatment duration was 4 weeks. The primary variable was 24-hour proteinuria.
Out of the 23 randomised patients, 7 received compound A 20 mg, 8 received compound A 50 mg and 8 received placebo. The mean age (±SD) was similar for all 3 groups. The HbA1c level at entry was also similar for all 3 groups.
Test [2] deals with patients with type 2 diabetes and nephropathy. Particulars: literature studies (N Engl J Med 2001); correlating with reduction in onset of end-stage renal disease, no change in mortality rates; cited from earlier work.

On to `COc1ccccc1Oc1c(NS(=O)(=O)c2ccc(C)cn2)nc(-c2ccncc2)nc1OC` [compound A], for which the “decrease in 24-hour proteinuria” value in test [1] (compound A 50 mg once daily, 4 weeks, on top of high-dose ARB, mean ± SD, 8 patients) is given as −1.3±1.3 g/24 h. Moreover, the “mean decrease in 24-hour proteinuria” value in test [1] (the 2 groups treated with compound A (20 mg and 50 mg), summary statement, called clinically relevant) is “around 1 g/24 h”.
As for `CCCCC1=NC2(CCCC2)C(=O)N1Cc1ccc(-c2ccccc2-c2nnn[nH]2)cc1` [irbesartan], the effect on proteinuria entry in test [2] is listed as “decrease in proteinuria”.
Consider `CCCCc1nc(Cl)c(CO)n1Cc1ccc(-c2ccccc2-c2nn[nH]n2)cc1` [losartan], for which, in test [2], the effect on proteinuria entry is reported as “decrease in proteinuria”.

(Values after patent US20060094731A1, “New medicament” (priority 2003, published 2006).)
